# Laboratory results: patent US6828450B2, “Triptycene analogs” (Kansas State University Research Foundation, priority 2000, dated 2004)
# Several values for one entry are separate records, joined by “and”; a condition that tells them apart may be missing. Equal entries are not always repeated.
# How the values were obtained:
# L1210 cells [1] = experiment: DNA cleavage (intact chromatin precipitation) in L1210 cells; type: cell-based, murine
# Method: FIG. 19. Comparison of the concentration-dependent effects of novel TT analogs and known DNA-damaging anticancer drugs on DNA cleavage in L1210 cells in vitro. […] After lysing the cells in HLB containing 0.2% Triton X-100, the detergent-soluble DNA fragments present in the supernatants and the intact chromatin DNA remaining in the pellets were separated by centrifugation and their radioactivity estimated by LSC. Results are expressed as [cpm in supernatant/cpm in supernatant+pellet]×100 at 24 h. For untreated controls (5.3±0.6% DNA fragmentation; striped area), the supernatant is 741±79 cpm and the pellet is 13,293±1,446 cpm.
# FIG. 20. Comparison of the abilities of novel TT analogs to induce DNA cleavage in L1210 cells in vitro. Cells containing prelabeled DNA were incubated at 37° C. for 24 h in the presence or absence (control) of 7 μM concentrations of the indicated compounds. The protocol of the experiment and the determination of the results were identical to those of FIG. 12.
# FIG. 22. Irreversibility of the effects of novel TT analogs and known DNA-damaging anticancer drugs on DNA cleavage in L1210 cells in vitro. Cells containing prelabeled DNA were incubated at 37° C. for various periods of time in the presence or absence (control) of 10 μM TT1 or TT2 and 1.6 μM DAU or CPT. The protocol of the experiment and the determination of the results at 24 h were identical to those of FIG. 19, except that the drugs were either maintained in the medium for the whole 24-h period of incubation (open) or removed after the first 3 (striped) and 8 h (closed). After spinning and washing the appropriate samples to remove the drugs, cells were resuspended in 0.5 ml of fresh medium to complete the 24-h period of incubation in the absence of drugs. Vehicle-treated controls were similarly spun and washed at 3 and 8 h. Bars: means±SD (n=3).
# Drug-induced DNA cleavage was determined by intact chromatin precipitation, using L1210, HL-60-S, HL-60-RV and HL-60-R8 cells which were prelabeled with 1 μCi of ^3H-thymidine for 2 h at 37° C., washed with 3×1 ml of ice-cold PBS, collected by centrifugation, and resuspended in fresh FCS-containing RPMI 1640 medium at a density of about 1×10^6 cells/0.5 ml for L1210 and 0.5×10^6 cells/0.5 ml for HL cells. Except when otherwise specified, such cells containing prelabeled DNA were then exposed for 24 h to TTs and drugs known to induce DNA fragmentation. After centrifugation at 200×g for 10 min to discard the drugs and wash the cells, the intact cell pellets were lysed for 30 min in 0.5 ml of HLB, centrifuged at 12,000×g for 30 min to collect the supernatants, and resuspended in 0.5 ml of HLB. After another similar centrifugation, the radioactivities in the pooled supernatants (detergent-soluble low molecular weight DNA fragments) and the pellet (intact chromatin DNA) were determined by LSC: % DNA fragmentation=[cpm in supernatant/cpm in supernatant+pellet]×100. Before being counted in 6 ml of Bio-Safe NA, the intact pelleted chromatin was incubated for 2 h at 60° C. in the presence of 0.6 ml of NCS tissue solubilizer (Amersham).
# [2] = test system: Plasmodium falciparum 3D7; experiment: Antimalarial activity, inhibition of Plasmodium falciparum 3D7; type: cell-based; details: malaria strain 3D7
# [3] = Water solubility (stated in words); type: physicochemical
# L1210 cells [4] = experiment: L1210 tumor cell proliferation assay (Coulter counter); details: for inhibitory effect on L1210 cell growth: 256 nM, 4 days
# Method: (§1) FIG. 1. […] For tumor cell growth and viability, L1210 cells were respectively seeded in triplicate at initial densities of 1×10^4 and 1.11×10^4 cells/0.5 ml/well in RPMI 1640 medium containing 7.5% FCS and penicillin (100 IU/ml)-streptomycin (100 μg/ml), and grown for 4 days in the presence or absence (control) of 256 nM concentrations of the indicated compounds in a humidified incubator at 37° C. with 5% CO2 in air. Cell density was monitored using a Coulter counter. […] The ability of viable cells/0.5 ml to bioreduce 0.1 ml of MTS:PMS (20:1) reagent over a 3-h incubation period at 37° C. was assessed by measuring the absorbamce of the water-soluble formazan products at A490 nm.
# FIG. 3. […] The protocol of the experiment was identical to that of FIG. 1. […] Drug concentrations are plotted on a logarithmic scale.
# (§2) TT0 was purchased from Aldrich (Milwaukee, Wis.). All solutions of synthetic TTs and tricyclic pyrone H10, vincristine (VCR; a gift from Lilly Researeh Laboratories, Indianapolis, Ind.) and camptothecin (CPT; from Sigma Chemical Co., St Louis, Mo.) were dissolved and diluted in dimethyl sulfoxide (DMSO), whereas daunomycin (DAU) (from Sigma) solutions were prepared in 0.1 M potassium phosphate buffer, pH 7.4, containing 0.9% NaCl. Suspension cultures of murine L1210 lymphocytic leukemia cells (American Type Culture Collection, Rockville, Md.) were maintained in continuous exponential growth by twice-a-week passage in RPMI 1640 medium supplemented with 7.5% fortified bovine calf serum (FCS; HyClone Laboratories, Logan, Utah) and penicillin (100 IU/ml)-streptomycin (100 μg/ml), and incubated in the presence or absence of drugs at 37° C. in a humidified atmosphere containing 5% CO2. […] Control cells incubated in the absence of drugs were similarly treated with vehicle only and, in every experiment, all incubates received the same volume of solvent. For drug removal, incubates were spun at 200×g for 10 min, drug-containing supernatants were discarded, and intact cells were washed thrice with 1 ml of the above RPMI 1640 culture medium and resuspended in 0.5 ml of fresh medium for further incubation.
# For tumor cell growth, L1210 cells were resuspended in fresh FCS-containing RPMI 1640 medium, plated at an initial density of 1×10^4 cells/0.5 ml, and incubated in 48-well Costar cell culture plates (Costar, Cambridge, Mass.). Except when otherwise specified, cells were grown for 4 days in the presence or absence of drugs and their density was monitored every 24 h using a Coulter counter (Coulter Electronics, Luton Beds, UK).
# L1210 cells [5] = experiment: cells; details: for inhibitory effect on L1210 cell viability: 256 nM, 4 days; for IC50: read-out: IC50 (concentration inhibiting by 50% the viability of L1210 leukemic cells), day 4, Table 2 series
# Method: as §1
# FIG. 4. […] Cells were seeded in triplicate at initial densities of 100,000 or 11,100 cells/0.5 ml/well and respectively incubated for 2 or 4 days in the presence or absence (control) of the indicated concentrations of drugs, which are plotted on a logarithmic scale. The ability of viable cells/0.5 ml to bioreduce 0.1 ml of MTS:PMS (20:1) reagent over a 3-h incubation period was assessed as described in FIG. 1.
# as §2
# L1210, HL-60-S, HL60-RV and HL-60-R8 cells suspended in FCS-containing RPMI 1640 medium were grown in 48-well Costar cell culture plates for up to 4 days in the presence or absence of drugs to evaluate drug cytotoxicity.
# L1210 cells [6] = experiment: Mitotic index of L1210 cells; type: cell-based, murine; details: 24-h treatment; 0.2 μM VCR, 1 μM H10 (FIG. 18)
# Method: FIG. 18. Effects of the novel TT analog TT2 and DAU on the mitotic index of L1210 cells in vitro. […] Cells (10^6/0.5 ml of RPMI 1640 medium) were incubated in triplicate for 24 h at 37° C. in the presence or absence (control) of 0.256, 0.64, 1.6 and 4 μM TT2, 0.256, 0.64 and 1.6 μM DAU, 0.2 μM VCR or 1 μM H10. After fixation with MeOH:acetic acid (3:1) and staining with 0.1% crystal violet, about 500 cells/slide were scored for mitotic figures and the mitotic index was expressed as the % of mitotic cells in drug-treated cultures divided by the % of mitotic cells in non-treated controls. The mean % of mitotic cells in control at 24 h was 1.86±0.43%.
# L1210 cells (about 1×10^6/0.5 ml of FCS-containing RPMI 1640 medium) were incubated in triplicate for 24 h at 37° C. in the presence or absence of TTs or known antimitotic drugs, and collected by centrifugation at 200×g for 10 min to determine their mitotic index. For hypotonic treatment, cells were resuspended in 1 ml of 75 mM KCl for 20 min at 4° C. After fixation in 1 ml of MeOH:acetic acid (3:1), the final cell pellets were collected by centrifugation, resuspended in 75 μl of MeOH:acetic acid (3:1), dispensed onto glass slides, air dried, and stained by spreading 40 μl of 0.1% crystal violet under a coverslip. The % of cells in mitosis was determined microscopically by counting 500 cells/slides. The mitotic index was calculated as the % of mitotic cells in drug-treated cultures divided by the % of mitotic cells in non-treated controls.
# [7] = biological target: Malaria protease plasmepsin II (Plasmodium falciparum, UniProt P46925); experiment: Inhibition of malaria protease plasmepsin II; type: biochemical
# Malaria protease plasmepsin II, sequence (P46925 125-453): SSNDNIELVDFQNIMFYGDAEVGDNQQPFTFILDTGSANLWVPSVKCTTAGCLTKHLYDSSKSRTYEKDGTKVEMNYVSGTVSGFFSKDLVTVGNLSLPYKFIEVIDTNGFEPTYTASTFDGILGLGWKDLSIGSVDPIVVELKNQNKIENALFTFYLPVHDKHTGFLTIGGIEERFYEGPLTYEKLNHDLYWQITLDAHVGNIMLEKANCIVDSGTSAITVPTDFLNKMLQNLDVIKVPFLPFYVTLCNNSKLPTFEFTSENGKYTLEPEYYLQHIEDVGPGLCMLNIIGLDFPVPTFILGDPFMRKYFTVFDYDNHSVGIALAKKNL
molecule,measurement,setting,value
"CC[C@@]1(O)C(=O)OCc2c1cc1n(c2=O)Cc2cc3ccccc3nc2-1 [CPT, camptothecin, reference compound]",DNA cleavage (% DNA fragmentation),"L1210 cells [1]; 1.6 μM, 24 h",57%
same,"DNA fragmentation at 24 h, drug maintained or removed","L1210 cells [1]; 1.6 μM, maintained or removed after 3 or 8 h",51-58%
same,Emax,"L1210 cells [1]; Mus musculus, L1210, concentrations of CPT higher than 1.6 μM, 24 h, read-out: DNA cleavage, plateau of maximal stimulation",60 to 70%
"CC(C)c1nc(CN(C)C(=O)N[C@H](C(=O)N[C@@H](Cc2ccccc2)C[C@H](O)[C@H](Cc2ccccc2)NC(=O)OCc2cncs2)C(C)C)cs1 [ritonavir, reference compound]",IC50,[2]; Plasmodium falciparum,9700 nM
O=C(O)CCNC1=C(O)C(=O)C2=C(C1=O)C1C3=C(C(=O)C=CC3=O)C2c2ccccc21 (stereo not drawn) [TT21],water solubility,[3],water soluble
"COC(=O)[C@@]12C(=O)C=CC(=O)[C@@H]1C1c3ccccc3C2c2c(OC)ccc(OC)c21 (relative stereo) [TT11, (4aR*,9aR*)-5,8-Dimethoxy-4a-methoxycarbonyl-9,9a,10-trihydro-9,10-[1′,2′]benzenoanthracene-1,4-dione]",DNA cleavage (% DNA fragmentation),"L1210 cells [1]; 7 μM, 24 h, control 5%",7%
same,inhibitory effect on L1210 cell growth,L1210 cells [4],marginal
same,inhibitory effect on L1210 cell viability,L1210 cells [5],marginal
"COC1=C(Br)C(=O)C2=C(C1=O)C1C3=C(C(=O)C=CC3=O)C2c2ccccc21 (stereo not drawn) [TT13, 2-Bromo-3-methoxy-9,10-dihydro-9,10-[1′,2′]benzenoanthracene-1,4,5,8-tetraone]",IC50,L1210 cells [5],291 nM
"CC(C)(C)OC(=O)CCNC1=C(Br)C(=O)C2=C(C1=O)C1C3=C(C(=O)C=CC3=O)C2c2ccccc21 (stereo not drawn) [Compound 12, 2-Bromo-3-[2-(t-butoxycarbonyl)ethylamino]-9,10-dihydro-9,10-[1,2]benzenoanthracene-1,4,5,8-tetraone]",IC50,L1210 cells [5],310 nM
"CC[C@]1(O)C[C@H]2CN(CCc3c([nH]c4ccccc34)[C@@](C(=O)OC)(c3cc4c(cc3OC)N(C=O)[C@H]3[C@@](O)(C(=O)OC)[C@H](OC(C)=O)[C@]5(CC)C=CCN6CC[C@]43[C@@H]65)C2)C1 [VCR, vincristine, reference compound]",increase in the mitotic index,L1210 cells [6],16 fold
"CNC1=C(Br)C(=O)C2=C(C1=O)C1C3=C(C(=O)C=CC3=O)C2c2ccccc21 (stereo not drawn) [TT14, 2-Bromo-3-(methylamino)-9,10-dihydro-9,10-[1′,2′]benzenoanthracene-1,4,5,8-tetraone]",IC50,[2],4700 nM
same,IC50,L1210 cells [5],430 nM
same,IC50,[7],9700 nM
"CCOC(=O)CCNC1=C(Br)C(=O)C2=C(C1=O)C1C3=C(C(=O)C=CC3=O)C2c2ccccc21 (stereo not drawn) [TT17, 2-Bromo-3-[2-(ethoxycarbonyl)ethylamino]-9,10-dihydro-9,10-[1′,2′]benzenoanthracene-1,4,5,8-tetraone]",IC50,L1210 cells [5],240 nM
"9,10-Dihydro-9,10-[1′,2′]benzenoanthracene-1,4,5,8-tetraone [TT1]",DNA fragmentation at 24 h after short exposure,"L1210 cells [1]; 10 μM, drug removed after 3 and 8 h",36-45%
same,DNA cleavage (% DNA fragmentation),"L1210 cells [1]; 10 μM, whole 24 h",45% and 40%
"O=C(O)CCNC1=C(Br)C(=O)C2=C(C1=O)C1C3=C(C(=O)C=CC3=O)C2c2ccccc21 (stereo not drawn) [Compound 13, N-(2-Bromo-9,10-dihydro-1,4,5,8-tetraoxo-9,10-[1,2]benzenoanthracene-3-yl)-3-aminopropanoic acid]",IC50,L1210 cells [5],1480 nM
"c1ccc2c(c1)C1c3ccccc3C2c2ccccc21 [TT0, triptycene]",activity against macromolecule synthesis and growth of L1210 cells,L1210 cells [4]; in vitro,inactive
"COC(=O)C1=CC(=O)[C@H]2C3c4ccccc4C(c4c(OC)ccc(OC)c43)[C@H]2C1=O (relative stereo) [TT10, (4aS*,9aR*)-5,8-Dimethoxy-2-methoxycarbonyl-4a,9,9a,10-tetrahydro-9,10-[1′,2′]benzenoanthracene-1,4-dione]",inhibitory effect on L1210 cell growth,L1210 cells [4],weak
same,inhibitory effect on L1210 cell viability,L1210 cells [5],weak
